Results: patent US9682993B2, “Anticancer compounds” (ST. JUDE CHILDREN'S RESEARCH HOSPITAL, priority 2012, dated 2017)

Tests used:
[1] = tested on: HeLa; experiment: Drug combination assay, HeLa; assay type: cell-based; conditions: HeLa cells; combined with AUDA (15 μM)
Protocol: Preliminary cytotoxic screenings for each drug used in drug combination assays were performed to determine their cytotoxic dose range. […] Eight concentrations were established by 1:3 serial dilutions of the single drugs and their combinations with the splicing modulators. All drug concentrations were evaluated in triplicate in 96-well cell culture plates. Assays of individual drugs and drug combinations were run on the same tissue culture plate. Cell viability was determined using the CellTiter-Glo reagent. Drug interactions, in terms of synergism, additive effect, or antagonism, were based on the drugs' Combination Index (CI) (Chou et al., Adv. Enzyme Regul. 1984, 22, 27).
Luminescence data obtained from the cell viability determinations were formatted per the requirements of the analytical software (viability data range: >0 and <1). The formatted data were analyzed with the software CalcuSyn 2.1 (Biosoft, Cambridge, UK), which provides quantitative CI values for the drug interaction analyses (see ranges in Supplementary Table S2). […] Therefore, in these two cases the drug interaction was evaluated by comparing the IC50 value of Sudemycin with that of the IC50 values resulting from the serial dilutions of the splicing modulator combined with a constant dose of the non-toxic drug.

[2] = tested on: cell lines investigated; experiment: Drug combination assays, cell line not stated; assay type: cell-based; conditions: all cell lines investigated
[3] = Maximum tolerated dose study (weight loss); assay type: in vivo, C.B-17 scid mice; conditions: 50 mg/kg four hour infusion daily for five days; day 5 of infusion
Protocol: Xenograft tumors were first established from an SK-MEL-2 cell culture at the St. Jude Children's Research Hospital Xenograft Core. After these tumors were established as a mouse xenograft model, they were routinely maintained in the C.B-17 scid strain (Taconic Farms, Germantown, N.Y.). Experimental animals were prepared by transplanting small pieces of dissected tumors from donor animals into recipient mice. All animal studies were performed in accordance with the St. Jude Children's Research Hospital Animal Care and Use Committee. SK-MEL-2 xenograft tumors were transplanted into male C.B-17 scid mice on Day −21. On Days −7 to −5, a jugular vein catheter was surgically implanted into each mouse. […] Tumors were continuously measured during and after infusion periods, 5 times per week (weekdays). Tumor volumes were determined based on the following equation: Tuvol=(δ1/2+δ2/2)^1.5708, where δ1 and δ2 are diameters measured with a caliper at right angles of each other. […]
The in vivo effects, e.g. weight loss, of compound 20 were evaluated in mice using the methods described herein above. […] Weight of the test animals was determined daily (5 weight measurements/week). […]

In the case of `CNC(=O)O[C@@H](C)/C=C\C(=O)N[C@H]1CC[C@@H](C/C=C(C)/C=C/[C@@H]2C[C@]3(CO3)CC(C)(C)O2)CC1` [compound 20, (S,Z)-5-(((1R,4R)-4-((2E,4E)-5-((3R,5S)-7,7-Methyl-1,6-Dioxaspiro[2.5]Octan-5-Yl)-3-Methylpenta-2,4-Dien-1-Yl)Cyclohexyl)Amino)-5-Oxopent-3-En-2-Yl Methylcarbamate], the “effect of soluble epoxide hydrolase inhibition on IC50” value [1] is reported as “improves the IC50”, the “synergy with PI3K/mTOR inhibition” value [2] is reported as “synergy is also seen” and the average weight loss [3] is reported as 12.7%.
